What all share (assay): NCI tumour cell line growth inhibition, 48 h
Assay [1] deals with MALME-3M melanoma.
The test system of assay [2] is SK-OV-3 ovarian.
Assay [3] deals with SF-539 CNS.
In assay [4] the test system is TK-10 renal.
Assay [5] relates to K-562 leukemia.
Assay [6] deals with UACC-257 melanoma.
For assay [7], the system named is KM12 colon.
For assay [8], the system named is LOX IMVI melanoma.
The test system of assay [9] is SN12C renal.
Assay [10] deals with NCI/ADR-RES ovarian.

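Test compounds were applied to cells in 96-well plates for 48 hours at 5 doses. GI50: concentration for 50% inhibition of growth. TGI is the concentration that stops growth completely.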

For `COc1cc(C2=N/C(=C/c3cccs3)C(=O)O2)cc(OC)c1OC`, the TGI in [1], in assay [2], in assay [3], in assay [4], in assay [5] and in [6] was over 100 µM throughout. For the same compound, the TGI in assay [7], in assay [8] and in assay [9] was over 100 µM each time.

For the compound `CSc1snc2sc3c(Cl)nnnc3c12`, the TGI in [1] was 29.3 µM; in assay [2], 33.3 µM; in [3], 32.1 µM; in assay [4] it was 30.9 µM; in [5], 5.73 µM; in [6], 26.8 µM. The TGI in [7] came out at 30 µM; in [8], 11.2 µM; in assay [9] it was 28.7 µM.

For the compound `CCOC(=O)C1=C(C)N(Cc2ccc(Cl)cc2Cl)C2(O)C=CC(=O)C3=C(O)c4ccccc4C(=O)C312` (configuration not stated), the GI50 is 0.888 µM in [10]; 17.4 µM in assay [2]; 3.78 µM in [4]; 4.85 µM in assay [5]; 10.9 µM in assay [6]; 4.02 µM in [7]. Moreover, the GI50 in assay [8] was 2.75 µM; in [9] it was 3.39 µM. In addition, the TGI was 10.3 µM in assay [10]; 91.7 µM in [2]; 10.8 µM in [4]; over 100 µM in assay [5]; 61.2 µM in assay [6]; 16.8 µM in assay [7]. Further, the TGI in assay [8] stood at 16.1 µM; in [9] it was 15.4 µM.

On to `COc1ccc2oc(C(=O)O)c3c2c1CCC3CCC(=O)O` (configuration not stated), for which the TGI in [1], in assay [2], in [3], in [4], in [5] and in assay [6] was over 100 µM in each case. The TGI in assay [7], in [8] and in assay [9] was over 100 µM in each case.

With `CCCCCCCCCC(=O)OCC1OC(n2cc(F)c(=O)[nH]c2=O)C(NC(=O)OCc2ccccc2)C(OC(=O)CCCCCCCCC)C1O` (configuration not stated), the TGI was 90.6 µM in assay [1]; over 100 µM in assay [2]; over 100 µM in assay [3]; over 100 µM in assay [4]; over 100 µM in assay [5]; over 100 µM in [6]. Moreover, the TGI is over 100 µM in assay [7], 30.2 µM in [8] and 29.6 µM in assay [9].

`COc1ccc(/C=C2\CCC(CCN(C)C)(C3=CCCC3)C2=O)cc1Br` (configuration not stated): the TGI in [1] is 28 µM; in [3] it was 25.7 µM; in [4] it was 20 µM; in assay [5] it was 5.23 µM; in assay [6], 5.5 µM; in assay [7] it was 14.9 µM. Further, the TGI in [8] was 15.4 µM; in assay [9], 22 µM.

As to `C=C1CC2CC(O)CC(C1)C2` (configuration not stated), the TGI in [1], in assay [2], in assay [3], in [4], in assay [6] and in assay [7] was over 100 µM throughout. In addition, the TGI in assay [8] and in [9] was over 100 µM throughout.

As to `Cc1ccc(C(=O)/C=C/c2cccc([N+](=O)[O-])c2)cc1`, the TGI in assay [1] is over 100 µM; in [2] it was over 100 µM; in [3] it was over 100 µM; in [4], over 100 µM; in assay [5], 66.5 µM; in assay [6], over 100 µM. The values for the TGI in assay [7], in assay [8] and in assay [9] were over 62.1 µM, over 100 µM and over 100 µM, respectively.

`CCCCNC(=O)C1C2CCC(O2)C1C(=O)O` (configuration not stated): the TGI in [1] is 43.7 µM; in assay [2], 53.7 µM; in assay [3], 39.6 µM; in assay [4], 42.5 µM; in assay [6] it was 45.7 µM; in assay [7] it was over 100 µM. Further, the TGI in assay [8] was 34.7 µM; in assay [9], 30.9 µM.

On to `CC(=O)O[C@@]1(C)[C@@H](C)C(=O)O[C@@H]2CCN3CC=C(COC(=O)[C@]1(C)O)[C@H]23`, for which the TGI in [1], in assay [3], in [4], in assay [5], in assay [6] and in [7] was over 100 µM in each case.

As for `O=C(N/N=C1\C(=O)N(c2nccs2)C(=O)C(=O)C1c1nc2ccccc2s1)c1ccccc1O` (configuration not stated), the TGI in [1], in assay [2], in assay [3], in assay [4], in assay [5] and in assay [6] was over 100 µM throughout. The TGI in assay [7], in assay [8] and in [9] was over 100 µM throughout.

Take `C/C=C(\CCOS(=O)(=O)c1ccc(C)cc1)[Si](C)(C)C`: the TGI in assay [1], in assay [2], in assay [3], in assay [4], in assay [5] and in [6] was over 100 µM throughout. The TGI in assay [7], in assay [8] and in assay [9] was over 100 µM in each case.

Take `CCc1cc(CCC(=O)Nc2ccccc2[N+](=O)[O-])[nH]c(=S)n1`: the TGI in assay [2], in assay [3], in assay [4], in assay [5], in assay [6] and in assay [7] was over 100 µM each time. For the same compound, in [8], the TGI is over 100 µM.

Take `Cc1cccc2c1CCC21OC(=O)c2c1ccc1ccccc21` (configuration not stated): the TGI is 75.5 µM in assay [1]; over 100 µM in assay [2]; over 100 µM in assay [4]; 66.7 µM in assay [5]; 85.5 µM in assay [6]; over 100 µM in [7]. Besides, the TGI in assay [8] and in assay [9] was over 100 µM throughout.

`Nc1n[n+](-c2ccccc2)no1`: the TGI in assay [1], in [2], in [3], in assay [4], in [5] and in assay [6] was over 100 µM throughout. The TGI in [7], in [8] and in assay [9] was over 100 µM in each case.

With `O=C(CC(=O)c1cccc2ccccc12)C(=O)NC1C2CC3CC(C2)CC1C3` (configuration not stated), the TGI in assay [1], in assay [2], in assay [3], in [4], in [5] and in assay [6] was over 100 µM in each case. Also, the TGI in [7], in [8] and in assay [9] was over 100 µM throughout.

`CC(C(N)C(=O)NC(C(=O)O)C1OC(n2ccc(=O)[nH]c2=O)C(O)C1O)C(O)c1ccc(O)cn1` (configuration not stated): the TGI in assay [10], in assay [3], in assay [4], in assay [6], in [7] and in assay [8] was over 100 µM each time. For the same compound, the TGI in [9] was over 100 µM.

As for `CCc1ccc(C(=Nc2ccc(N(C)C(=O)CN3CCN(C)CC3)cc2)c2c(O)[nH]c3ccc(C(=O)OC)cc23)cc1`, the GI50 was 0.516 µM in assay [1]; 0.245 µM in assay [2]; 0.426 µM in assay [3]; 0.233 µM in [4]; 0.073 µM in [5]; 1.54 µM in assay [6]. For the same compound, the GI50 is 0.0387 µM in assay [7], 0.337 µM in assay [8] and 0.223 µM in assay [9]. The TGI in assay [1] was found to be 1.9 µM; in [2], 1.23 µM; in assay [3], 1.56 µM; in assay [4], 2.11 µM; in assay [5], 1.12 µM; in [6] it was 3.2 µM. The results for the TGI in assay [7], in [8] and in [9] were 1.4 µM, 1.63 µM and 1.61 µM, respectively.

Regarding `C=C1C(OC(=O)/C=C/c2ccccc2)CC(OC(C)=O)C2(C)C1CC1CC(OC(C)=O)C(C)=C(C(OC(C)=O)C2OC(C)=O)C1(C)C` (configuration not stated), the TGI in [1], in assay [2], in assay [3], in assay [4], in assay [5] and in assay [7] was over 100 µM each time. For the same compound, the TGI in [8] and in [9] was over 100 µM in each case.

As for `O=C(O/N=C1/CCC/C1=C\c1ccccc1)c1ccc(Cl)c(Cl)c1`, the TGI in [1], in assay [2], in assay [3], in assay [4], in [5] and in [6] was over 100 µM throughout. Also, the TGI in assay [7], in assay [8] and in assay [9] was over 100 µM each time.

In the case of `O=C1C2C(C(=O)N1c1ccccc1)C1([N+](=O)[O-])C=C3c4ccccc4N(C(=O)c4ccccc4)C32C2C(=O)N(c3ccccc3)C(=O)C21` (configuration not stated), the TGI in [1], in assay [2], in assay [4], in [5], in [6] and in assay [7] was over 100 µM in each case. The TGI in assay [8] and in assay [9] was over 100 µM each time.

Consider `CC(C)(C)c1ccc(OCCOCCOc2ccc(C(C)(C)C)cc2S(=O)(=O)Nc2ccc([N+](=O)[O-])cc2)c(S(=O)(=O)Nc2ccc([N+](=O)[O-])cc2)c1`, for which the TGI in [1], in assay [2], in [3], in assay [4], in [5] and in [6] was over 100 µM throughout. Further, the TGI in assay [7], in [8] and in assay [9] was over 100 µM each time.

For the compound `NC1=NN(c2ccccc2)C(=O)C1C(=O)C(=O)Nc1nccs1` (configuration not stated), the TGI in assay [1], in assay [2], in assay [3], in assay [4], in [5] and in [6] was over 100 µM in each case. For the same compound, the TGI in [7], in assay [8] and in assay [9] was over 100 µM throughout.

Consider `N#Cc1cc(S(=O)(=O)Nc2nnc(-c3ccccc3)c(-c3ccccc3)n2)c(SCc2ccccc2)cc1Cl`, for which the GI50 in assay [2] is 23.4 µM; in [3] it was 30.2 µM; in assay [4], 22.9 µM; in assay [5] it was 27.2 µM; in [6] it was 24.2 µM; in [7] it was 19.2 µM. In addition, the GI50 in assay [8] was 16.8 µM; in assay [9], 20.3 µM. Besides, the TGI in assay [2] is 57.4 µM; in assay [3] it was 62.4 µM; in [4], 46.2 µM; in assay [5], over 100 µM; in assay [6] it was 46.4 µM; in assay [7] it was 42.5 µM. The TGI was 32.8 µM in assay [8] and 47 µM in assay [9].

Regarding `COc1ccc2c3c(c(C(=O)c4ccccc4)oc13)CCC2`, the TGI in assay [2], in assay [3], in [4], in [5], in assay [6] and in assay [8] was over 100 µM in each case. For the same compound, the TGI in [9] is over 100 µM.

As to `N#CC1(C#N)C2C=CC(c3coc4cccc2c34)C1(C#N)C#N` (configuration not stated), the TGI in assay [1] was 18.8 µM; in assay [2], 31.7 µM; in assay [3] it was 35.2 µM; in [4] it was 18.6 µM; in assay [5], 6.22 µM; in assay [6], 23.1 µM. Also, the TGI in [7] is 33.8 µM; in assay [8], 28.7 µM; in assay [9], 23.2 µM.

As to `O=C(CCn1[nH]c(=O)c(Cl)c(Cl)c1=O)NNC(=O)C[n+]1ccccc1`, the TGI in assay [1], in [2], in [3], in [4], in [5] and in [7] was over 100 µM throughout. The TGI in [8] and in assay [9] was over 100 µM in each case.

Regarding `CCOC(=O)c1cnc2c(ccc3ncccc32)c1NCCCN(CC)CC`, the TGI in assay [1], in assay [2], in [4], in assay [5], in assay [6] and in assay [7] was over 100 µM in each case. The same compound registered a TGI in assay [8] of 33.6 µM.
